Measurements taken from US11612604B2, “Methods of treating cancer with PLK4 inhibitors” (LUDWIG INSTITUTE FOR CANCER RESEARCH LTD, priority 2017, dated 2023).

biological target: T1, PLK4 (Homo sapiens, UniProt O00444); assay: Activity (IC50) of the Table 1 compounds as PLK4 inhibitors; format: biochemical; settings: Table 1, IC50 class
T1 sequence (O00444 1-970): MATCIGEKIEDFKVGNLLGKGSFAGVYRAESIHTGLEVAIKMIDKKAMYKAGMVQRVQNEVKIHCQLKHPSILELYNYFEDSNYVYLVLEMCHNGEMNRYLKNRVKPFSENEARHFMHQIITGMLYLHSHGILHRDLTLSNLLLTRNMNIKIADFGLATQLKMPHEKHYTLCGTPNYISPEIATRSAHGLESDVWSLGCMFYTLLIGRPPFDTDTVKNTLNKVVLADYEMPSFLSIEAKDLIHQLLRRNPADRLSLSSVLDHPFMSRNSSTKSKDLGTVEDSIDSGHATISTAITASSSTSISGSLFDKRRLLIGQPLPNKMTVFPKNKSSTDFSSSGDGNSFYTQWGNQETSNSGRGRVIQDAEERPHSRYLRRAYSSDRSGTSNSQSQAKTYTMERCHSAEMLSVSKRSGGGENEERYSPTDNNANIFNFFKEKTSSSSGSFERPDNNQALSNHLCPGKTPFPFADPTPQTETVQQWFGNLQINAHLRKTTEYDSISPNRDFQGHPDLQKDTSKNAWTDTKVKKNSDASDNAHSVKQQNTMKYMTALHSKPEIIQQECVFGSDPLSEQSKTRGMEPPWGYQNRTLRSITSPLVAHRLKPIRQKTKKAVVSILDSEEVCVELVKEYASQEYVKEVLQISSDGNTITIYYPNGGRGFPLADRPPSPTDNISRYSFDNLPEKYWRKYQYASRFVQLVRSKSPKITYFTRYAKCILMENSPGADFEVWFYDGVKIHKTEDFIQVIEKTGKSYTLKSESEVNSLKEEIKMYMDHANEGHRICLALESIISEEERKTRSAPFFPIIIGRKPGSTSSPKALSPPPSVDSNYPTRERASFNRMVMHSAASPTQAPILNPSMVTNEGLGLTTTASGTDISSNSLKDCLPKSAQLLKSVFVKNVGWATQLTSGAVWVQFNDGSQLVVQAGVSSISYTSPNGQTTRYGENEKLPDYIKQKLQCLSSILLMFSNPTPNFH

IC50, < 100 nM:
CCN(CC)c1nc(Sc2ccc(NC(=O)C3CC3)cc2)nc(Nc2cc(C)[nH]n2)c1C
Cc1cc(Nc2nc(Sc3ccc(NC(=O)C4CC4)cc3)nc(Cl)c2C)n[nH]1
Cc1cc(Nc2nc(Sc3ccc(NC(=O)C4CC4)cc3)nc(N(C)CCN(C)C)c2C)n[nH]1
Cc1cc(Nc2nc(Sc3ccc(NC(=O)C4CC4)cc3)nc(NCCN(C)C)c2C)n[nH]1
CNCCN(C)c1nc(Sc2ccc(NC(=O)C3CC3)cc2)nc(Nc2cc(C)[nH]n2)c1C
COCCN(C)c1nc(Sc2ccc(NC(=O)C3CC3)cc2)nc(Nc2cc(C)[nH]n2)c1C
COc1c(Nc2cc(C)[nH]n2)nc(Sc2ccc(NC(C)=O)cc2)nc1N1CCC(O)CC1
COc1c(Nc2cc(C)[nH]n2)nc(Sc2ccc(NC(C)=O)cc2)nc1N1CC=CCC1
COc1c(Nc2cc(C)[nH]n2)nc(Sc2ccc(NC(C)=O)cc2)nc1N1CC=C(F)CC1
COc1c(Nc2cc(C)[nH]n2)nc(Sc2ccc(NC(C)=O)cc2)nc1N1CCC(C(C)=O)CC1
COc1c(Nc2cc(C)[nH]n2)nc(Sc2ccc(NC(C)=O)cc2)nc1N1CCC(N)CC1
COc1c(Nc2cc(C)[nH]n2)nc(Sc2ccc(NC(C)=O)cc2)nc1N1CCC(N(C)C)CC1
CC(=O)Nc1ccc(Sc2nc(Nc3cc(C)[nH]n3)c(C)c(N3CCC(CCN(C)C)CC3)n2)cc1
CCN1CCN(c2nc(Sc3ccc(NC(C)=O)cc3)nc(Nc3cc(C)[nH]n3)c2OC)CC1
COc1c(Nc2cc(C)[nH]n2)nc(Sc2ccc(NC(C)=O)cc2)nc1N1CCN(C(=O)C(C)C)CC1
CCC(=O)N1CCN(c2nc(Sc3ccc(NC(C)=O)cc3)nc(Nc3cc(C)[nH]n3)c2OC)CC1
COc1c(Nc2cc(C)[nH]n2)nc(Sc2ccc(S(=O)(=O)Cc3ccccc3)cc2)nc1N1CCN(C2CCN(C)CC2)CC1
COc1c(Nc2cc(C)[nH]n2)nc(Sc2ccc(S(=O)(=O)Cc3ccccc3)cc2)nc1N1CCC(N2CCN(C)CC2)CC1
CSc1nc(Nc2cc(C)[nH]n2)c(C)c(N2CCC(O)CC2)n1
CSc1nc(Nc2cc(C)[nH]n2)c(C)c(N2CCOCC2)n1
CC(=O)Nc1ccc(Sc2nc(Nc3cc(C)[nH]n3)c(C)c(N3CCN(C(C)C)CC3)n2)cc1
CC(=O)Nc1ccc(Sc2nc(Nc3cc(C)[nH]n3)c(C)c(N3CCN(C(=O)C(C)C)CC3)n2)cc1
CNCC(=O)N1CCN(c2nc(Sc3ccc(NC(C)=O)cc3)nc(Nc3cc(C)[nH]n3)c2OC)CC1
COc1c(Nc2cc(C)[nH]n2)nc(Sc2ccc(NC(C)=O)cc2)nc1N1CCN(C(=O)CN(C)C)CC1
CNC1CCN(c2nc(Sc3ccc(NC(C)=O)cc3)nc(Nc3cc(C)[nH]n3)c2C)CC1
CC(=O)Nc1ccc(Sc2nc(Nc3cc(C)[nH]n3)c(C)c(N3CCC(C(C)=O)CC3)n2)cc1
COc1c(Nc2cc(C)[nH]n2)nc(Sc2ccc(NC(C)=O)cc2)nc1N1CCN(C(C)C)CC1
CNCC(=O)C1CCN(c2nc(Sc3ccc(NC(C)=O)cc3)nc(Nc3cc(C)[nH]n3)c2OC)CC1
Cc1cc(Nc2nc(Sc3ccccc3)nc(N(C)C)c2C)n[nH]1
CNC(=O)Nc1ccc(Sc2nc(Nc3cc(C)[nH]n3)c(C)c(N3CCC(O)CC3)n2)cc1
CNC(=O)Nc1ccc(Sc2nc(Nc3cc(C)[nH]n3)c(C)c(N3CCOCC3)n2)cc1
Cc1cc(Nc2nc(Sc3ccccc3)nc(N3CCC(O)CC3)c2C)n[nH]1
COc1c(Nc2cc(C)[nH]n2)nc(Sc2ccc(S(=O)(=O)Cc3ccccc3)cc2)nc1N1CCN(CCN2CCCC2)CC1
Cc1cc(Nc2nc(Sc3ccccc3)nc(N3CCOCC3)c2C)n[nH]1
CC(=O)Nc1ccc(Sc2nc(Nc3cc(C)[nH]n3)c(C)c(N3CCC(N)CC3)n2)cc1
CC(=O)Nc1ccc(Sc2nc(Nc3cc(C)[nH]n3)c(C)c(N3CCC(N(C)C)CC3)n2)cc1
CC(=O)Nc1ccc(Sc2nc(Nc3cc(C)[nH]n3)c(C)c(N3CCC(C)(O)CC3)n2)cc1
CCN(CC)c1nc(Sc2ccc(NC(C)=O)cc2)nc(Nc2cc(C)[nH]n2)c1C
Cc1cc(Nc2nc(Sc3ccc(N)cc3)nc(N3CCC(O)CC3)c2C)n[nH]1
Cc1cc(Nc2nc(Sc3ccc(N)cc3)nc(N3CCOCC3)c2C)n[nH]1
COCC(=O)N1CCN(c2nc(Sc3ccccc3)nc(Nc3cc(C)[nH]n3)c2C)CC1
CSc1nc(Nc2cc(C)[nH]n2)c(C)c(N(C)C(C)C)n1
COc1c(Nc2cc(C)[nH]n2)nc(Sc2ccc(NC(C)=O)cc2)nc1N1CCC(CCN(C)C)CC1
CNC(=O)Nc1ccc(Sc2nc(Nc3cc(C)[nH]n3)c(C)c(N(C)C(C)C)n2)cc1
CNC(=O)Nc1ccc(Sc2nc(Nc3cc(C)[nH]n3)c(C)c(N3CCN(C(=O)COC)CC3)n2)cc1
Cc1cc(Nc2nc(Sc3ccc(N)cc3)nc(N(C)C(C)C)c2C)n[nH]1
COCC(=O)N1CCN(c2nc(Sc3ccc(N)cc3)nc(Nc3cc(C)[nH]n3)c2C)CC1
Cc1ccc(Sc2nc(Nc3cc(C)[nH]n3)c(C)c(N3CCC(O)CC3)n2)cc1
Cc1ccc(Sc2nc(Nc3cc(C)[nH]n3)c(C)c(N3CCOCC3)n2)cc1
COCC(=O)N1CCN(c2nc(Sc3ccc(C)cc3)nc(Nc3cc(C)[nH]n3)c2C)CC1
COc1c(Nc2cc(C)[nH]n2)nc(Sc2ccc(S(=O)(=O)Cc3ccccc3)cc2)nc1N1CCN(CCN2CCCCC2)CC1
COc1c(Nc2cc(C)[nH]n2)nc(Sc2ccc(S(=O)(=O)Cc3ccccc3)cc2)nc1N1CCN(CCN2C(C)CCCC2C)CC1 (stereo not drawn)
COc1c(Nc2cc(C)[nH]n2)nc(Sc2ccc(S(=O)(=O)Cc3ccccc3)cc2)nc1N1CCN(CCN2CCC(O)CC2)CC1
CC(=O)Nc1ccc(Sc2nc(Nc3cc(C)[nH]n3)c(Cl)c(N3CCC(O)CC3)n2)cc1
CC(=O)Nc1ccc(Cc2nc(N3CCC(O)CC3)nc(Nc3cc(C)[nH]n3)c2Cl)cc1
CCN(c1nc(Sc2ccc(NC(C)=O)cc2)nc(Nc2cc(C)[nH]n2)c1C)C(C)C
CC(=O)Nc1ccc(Sc2nc(Nc3cc(C)[nH]n3)c(C)c(N(CCO)C(C)C)n2)cc1
CC(=O)Nc1ccc(Sc2nc(Nc3cc(C)[nH]n3)c(C)c(N3CCN(CCN4CCOCC4)CC3)n2)cc1
CCOc1c(Nc2cc(C)[nH]n2)nc(Sc2ccc(NC(C)=O)cc2)nc1N1CCC(O)CC1
Cc1ccc(Sc2nc(Nc3cc(C)[nH]n3)c(C)c(N(C)C(C)C)n2)cc1
COCC(=O)N1CCN(c2nc(SC)nc(Nc3cc(C)[nH]n3)c2C)CC1
Cc1cc(Nc2nc(Sc3ccc(NC(=O)C4CC4)cc3)nc(N3CCC(O)CC3)c2C)n[nH]1
COc1c(Nc2cc(C)[nH]n2)nc(Sc2ccc(CC(=O)C3CC3)cc2)nc1N1CCC(O)CC1
CC(=O)Nc1ccc(Sc2nc(Nc3cc(C)[nH]n3)c(C)c(N3C4CCC3CC(O)C4)n2)cc1 (stereo not drawn)
COc1c(Nc2cc(C)[nH]n2)nc(Sc2ccc(NC(C)=O)cc2)nc1N1C2CCC1CC(O)C2 (stereo not drawn)
COc1c(Nc2cc(C)[nH]n2)nc(Sc2ccc(S(=O)(=O)Cc3ccccc3)cc2)nc1N1CCO[C@H](C)C1
COc1c(Nc2cc(C)[nH]n2)nc(Sc2ccc(S(=O)(=O)Cc3ccccc3)cc2)nc1N1CCN(C2CCN(Cc3ccccc3)CC2)CC1
COc1c(Nc2cc(C)[nH]n2)nc(Sc2ccc(S(=O)(=O)Cc3ccccc3)cc2)nc1N1CCO[C@@H](C)C1
COc1c(Nc2cc(C)[nH]n2)nc(Sc2ccc(S(=O)(=O)Cc3ccccc3)cc2)nc1N1CC2CCC(C1)O2
COc1cccc(CS(=O)(=O)c2ccc(Sc3nc(Nc4cc(C)[nH]n4)c(OC)c(N4CCN(CCN(C)Cc5ccccc5)CC4)n3)cc2)c1
COc1c(Nc2cc(C)[nH]n2)nc(Sc2ccc(S(=O)(=O)Cc3ccccc3C)cc2)nc1N1CCN(CCN(C)C)CC1
COc1c(Nc2cc(C)[nH]n2)nc(Sc2ccc(S(=O)(=O)Cc3ccccc3)cc2)nc1N1CCOC[C@H]1C
COc1c(Nc2cc(C)[nH]n2)nc(Sc2ccc(S(=O)(=O)Cc3ccccc3)cc2)nc1N1CCOC[C@@H]1C
COc1c(Nc2cc(C)[nH]n2)nc(Sc2ccc(S(=O)(=O)Cc3cccc(F)c3)cc2)nc1N1CCN(CCN(C)C)CC1
COc1c(Nc2cc(C)[nH]n2)nc(Sc2ccc(S(=O)(=O)Cc3cccc([N+](=O)[O-])c3F)cc2)nc1N1CCN(CCN(C)C)CC1
